PubChem BioAssay AID330 (DTP/NCI, 2004)
Where “and” joins values, the source holds several entries; their conditions need not be identical. Equal entries are not always repeated. Toxic doses and inconclusive results are not listed. The calls were made as follows: active = survival T/C of 150% or more; inactive = T/C below 125% in these data.

Tested on: P388 leukemia ip, CD2F1 mice, survival T/C
Experiment: NCI In Vivo Anticancer Drug Screen. Data for tumor model P388 Leukemia (intraperitoneal) in CD2F1 (CDF1) mice
Settings: endpoint: median survival time, higher = longer survival
Outline: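 Mice carrying the transplanted tumor received test compound or vehicle. Survival was recorded in each group, and the value is the treated-group measurement divided by that of the vehicle-treated control group.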

[1] = dose: 12.5 mg/kg/injection, schedule: Q01DX009 (ip), vehicle: Klucel (hydroxypropylcellulose) (HPC)
[2] = dose: 25.0 mg/kg/injection, schedule: Q01DX009 (ip), vehicle: Klucel (hydroxypropylcellulose) (HPC)
[3] = dose: 50.0 mg/kg/injection, schedule: Q01DX009 (ip), vehicle: Klucel (hydroxypropylcellulose) (HPC)
[4] = dose: 100.0 mg/kg/injection, schedule: Q01DX009 (ip), vehicle: Klucel (hydroxypropylcellulose) (HPC)
[5] = dose: 200.0 mg/kg/injection, schedule: Q04DX002 (ip), vehicle: saline with Tween-80
[6] = dose: 400.0 mg/kg/injection, schedule: Q04DX002 (ip), vehicle: saline with Tween-80
[7] = dose: 25.0 mg/kg/injection, schedule: Q01DX009 (ip), vehicle: saline with Tween-80
[8] = dose: 50.0 mg/kg/injection, schedule: Q01DX009 (ip), vehicle: saline with Tween-80
[9] = dose: 100.0 mg/kg/injection, schedule: Q01DX001 (ip), vehicle: saline with Tween-80
[10] = dose: 200.0 mg/kg/injection, schedule: Q01DX001 (ip), vehicle: saline with Tween-80
[11] = dose: 400.0 mg/kg/injection, schedule: Q01DX001 (ip), vehicle: saline with Tween-80

Measured: T/C

Cc1[nH]c2ccc(N(C)C)cc2c(=O)c1C
inactive: [1] 96 % of control | [2] 104 % of control and 107 % of control | [3] 100 % of control and 103 % of control and 123 % of control | [4] 102 % of control and 103 % of control and 107 % of control | dose: 200.0 mg/kg/injection, schedule: Q01DX009 (ip), vehicle: Klucel (hydroxypropylcellulose) (HPC) 112 % of control

COc1ccc(SC(N(C)C)=[N+](C)C)cc1
inactive: dose: 15.0 mg/kg/injection, schedule: Q01DX005 (ip), vehicle: saline 100 % of control | dose: 30.0 mg/kg/injection, schedule: Q01DX005 (ip), vehicle: saline 100 % of control | dose: 60.0 mg/kg/injection, schedule: Q01DX005 (ip), vehicle: saline 102 % of control and 121 % of control

COc1ccc2c(c1)CCc1c(N)ncnc1-2
inactive: dose: 100.0 mg/kg/injection, schedule: Q04DX002 (ip), vehicle: saline with Tween-80 104 % of control | [5] 106 % of control | [6] 107 % of control

N#CC1=CC2C3C(=O)N(c4ccccc4)C(=O)C3C1N(Cc1ccccc1)C2c1ccccc1 (stereo unspecified)
inactive: dose: 12.5 mg/kg/injection, schedule: Q01DX005 (ip), vehicle: saline with Tween-80 95 % of control | dose: 12.5 mg/kg/injection, schedule: Q04DX002 (ip), vehicle: saline with Tween-80 102 % of control | dose: 25.0 mg/kg/injection, schedule: Q01DX005 (ip), vehicle: saline with Tween-80 91 % of control | dose: 25.0 mg/kg/injection, schedule: Q04DX002 (ip), vehicle: saline with Tween-80 94 % of control | dose: 50.0 mg/kg/injection, schedule: Q01DX005 (ip), vehicle: saline with Tween-80 89 % of control | dose: 50.0 mg/kg/injection, schedule: Q04DX002 (ip), vehicle: saline with Tween-80 94 % of control | dose: 200.0 mg/kg/injection, schedule: Q01DX005 (ip), vehicle: saline with Tween-80 87 % of control | [5] 87 % of control | [6] 89 % of control

FC(F)(F)c1nc2nc(Cl)c(Cl)nc2[nH]1
inactive: dose: 25.0 mg/kg/injection, schedule: Q04DX003 (ip), vehicle: other 100 % of control | dose: 50.0 mg/kg/injection, schedule: Q04DX003 (ip), vehicle: other 109 % of control

CNc1nc(NC)nc(N(C)C=O)n1
inactive: [7] 95 % of control | [8] 90 % of control

NC(Cc1c[nH]c(=O)[nH]c1=O)C(=O)O (stereo unspecified)
inactive: dose: 50.0 mg/kg/injection, schedule: Q01DX005 (ip), vehicle: Klucel (hydroxypropylcellulose) (HPC) 96 % of control | dose: 100.0 mg/kg/injection, schedule: Q01DX005 (ip), vehicle: Klucel (hydroxypropylcellulose) (HPC) 100 % of control | dose: 200.0 mg/kg/injection, schedule: Q01DX005 (ip), vehicle: Klucel (hydroxypropylcellulose) (HPC) 88 % of control

CC1=CCC(C(C)(O)C2CCC3(C)C4=C(C=C5C=CC(=O)OC(C)(C)C5CC4)CCC23C)OC1=O (stereo unspecified)
inactive: dose: 12.5 mg/kg/injection, schedule: Q01DX005 (ip), vehicle: other 94 % of control | dose: 25.0 mg/kg/injection, schedule: Q01DX005 (ip), vehicle: other 92 % of control

O=C(CSc1ccccc1)c1ccccc1
inactive: dose: 10.0 mg/kg/injection, schedule: Q01DX005 (ip), vehicle: Klucel (hydroxypropylcellulose) (HPC) 101 % of control | dose: 20.0 mg/kg/injection, schedule: Q01DX005 (ip), vehicle: Klucel (hydroxypropylcellulose) (HPC) 102 % of control | dose: 40.0 mg/kg/injection, schedule: Q01DX005 (ip), vehicle: Klucel (hydroxypropylcellulose) (HPC) 101 % of control

COC(=O)c1cc(C)n(Cc2ccccc2)c1
inactive: [9] 97 % of control | [10] 99 % of control | [11] 97 % of control

Cc1ccc(S(=O)(=O)NCCN(CCN(CCNS(=O)(=O)c2ccc(C)cc2)S(=O)(=O)c2ccc(C)cc2)S(=O)(=O)c2ccc(C)cc2)cc1
inactive: [8] 101 % of control | dose: 100.0 mg/kg/injection, schedule: Q01DX009 (ip), vehicle: saline with Tween-80 92 % of control | dose: 200.0 mg/kg/injection, schedule: Q01DX009 (ip), vehicle: saline with Tween-80 90 % of control

NC(=O)/C=C\C(=O)NC1CCSC1=O (stereo unspecified)
inactive: dose: 60.0 mg/kg/injection, schedule: Q01DX005 (ip), vehicle: saline + Tween-80 + alcohol 105 % of control | dose: 120.0 mg/kg/injection, schedule: Q01DX005 (ip), vehicle: saline + Tween-80 + alcohol 94 % of control | dose: 240.0 mg/kg/injection, schedule: Q01DX005 (ip), vehicle: saline + Tween-80 + alcohol 100 % of control

C=C(CCCC)CNCCOC(=O)c1ccc([N+](=O)[O-])cc1
inactive: dose: 12.5 mg/kg/injection, schedule: Q04DX003 (ip), vehicle: saline 104 % of control | dose: 25.0 mg/kg/injection, schedule: Q04DX003 (ip), vehicle: saline 104 % of control | dose: 50.0 mg/kg/injection, schedule: Q04DX003 (ip), vehicle: saline 104 % of control

O=C(Cn1cnc2c(=S)nc[nH]c21)Oc1ccc([N+](=O)[O-])cc1
inactive: dose: 12.5 mg/kg/injection, schedule: Q01DX009 (ip), vehicle: saline with Tween-80 109 % of control | [7] 100 % of control | dose: 25.0 mg/kg/injection, schedule: Q04DX003 (ip), vehicle: saline with Tween-80 91 % of control | [8] 100 % of control | dose: 50.0 mg/kg/injection, schedule: Q04DX003 (ip), vehicle: saline with Tween-80 91 % of control

CN(C)C(=O)c1nc(CNC(=O)CN)n(-c2ccc(Cl)cc2C(=O)c2ccccc2)n1
inactive: dose: 60.0 mg/kg/injection, schedule: Q01DX005 (ip), vehicle: Klucel (hydroxypropylcellulose) (HPC) 103 % of control | dose: 120.0 mg/kg/injection, schedule: Q01DX005 (ip), vehicle: Klucel (hydroxypropylcellulose) (HPC) 100 % of control

CCCCCCCCCCCCCCCCc1c(C(=O)OC)nc(N)[nH]c1=O
inactive: dose: 3.75 mg/kg/injection, schedule: Q01DX005 (ip), vehicle: saline with Tween-80 99 % of control | dose: 7.5 mg/kg/injection, schedule: Q01DX005 (ip), vehicle: saline with Tween-80 100 % of control | dose: 15.0 mg/kg/injection, schedule: Q01DX005 (ip), vehicle: saline with Tween-80 103 % of control

C=C1C(=O)C23C(OC(=O)CCCCCCCCCCCCCCC)C1CCC2C12COC3(O)C(O)C1C(C)(C)CCC2O (stereo unspecified)
inactive: dose: 3.75 mg/kg/injection, schedule: Q01DX009 (ip), vehicle: saline with Tween-80 101 % of control | dose: 7.5 mg/kg/injection, schedule: Q01DX009 (ip), vehicle: saline with Tween-80 104 % of control | dose: 15.0 mg/kg/injection, schedule: Q01DX009 (ip), vehicle: saline with Tween-80 103 % of control | dose: 30.0 mg/kg/injection, schedule: Q01DX009 (ip), vehicle: saline with Tween-80 99 % of control

Oc1oc(-c2ccccc2)nc1/C=C1/C(Cl)=Nc2ccccc21
inactive: [9] 99 % of control | [10] 99 % of control | [11] 100 % of control

O=C1c2c(O)cc(O)cc2OC(c2ccc(O)cc2)C1O (stereo unspecified)
inactive: dose: 9.75 mg/kg/injection, schedule: Q01DX009 (ip), vehicle: saline 100 % of control | dose: 19.5 mg/kg/injection, schedule: Q01DX009 (ip), vehicle: saline 101 % of control | dose: 39.0 mg/kg/injection, schedule: Q01DX009 (ip), vehicle: saline 102 % of control

COC(=O)C1=C/CCCN(CCc2ccccc2)/C=C\1C(=O)OC
inactive: dose: 100.0 mg/kg/injection, schedule: Q01DX001 (ip), vehicle: alcohol 103 % of control | dose: 200.0 mg/kg/injection, schedule: Q01DX001 (ip), vehicle: alcohol 101 % of control | dose: 400.0 mg/kg/injection, schedule: Q01DX001 (ip), vehicle: alcohol 97 % of control

OCC1OC(n2cnc3c(NO)ncnc32)CC1O (stereo unspecified)
inactive: [1] 100 % of control | [2] 112 % of control | [3] 100 % of control | [4] 100 % of control
